Laboratory results reported in patent US20240366612A1, “COMPOUNDS AND METHODS FOR MODULATING NUCLEIC ACID SPLICING” (REMIX THERAPEUTICS INC., priority 2021, published 2024).
Structures can show the parent of a compound that is named as a salt.

How the values were obtained:
MYB mRNA = test: Splicing RT-qPCR assay, MYB canonical (CJ) and alternative (AJ) junction mRNA; type: cell-based; conditions: Homo sapiens, A673 or K562 cells, 24 hours treatment; for IC50: decrease in CJ mRNA; for AC50: increase in AJ mRNA
How it was run: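 Compound-treated A673 or K562 cells (11-point 3-fold dilution, top dose 10 uM final, DMSO ≤0.25%) were incubated for 24 h at 37° C. Lysates underwent one-step RT-qPCR for canonical and alternative-exon junction isoforms. Normalization used PPIA for A673 and GAPDH or GUSB for K562.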

[1] = system: HiBiT-tagged MYB protein in K562 cells; test: HiBiT protein abundance assay, MYB; type: cell-based, human; conditions: HiBiT-modified K562 cells, 24 hours, luminescence
How it was run: (§1)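 K562 lines with the endogenous target HiBiT-tagged, seeded in IMDM+1% FBS, got a 10-point 3-fold dilution series (top final 10 μM, DMSO ≤0.25%) for 24 hours at 37° C. Lytic LgBiT luminescence was normalized against unmodified-K562 and DMSO-only controls, and IC50 was interpolated at 50% from a four-parameter logistic fit.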

[2] = system: HiBiT-tagged Target C protein in K562 cells; test: HiBiT protein abundance assay, Target C; type: cell-based, human; conditions: HiBiT-modified K562 cells, 24 hours, luminescence
How it was run: as §1

[3] = system: HiBiT-tagged HTT protein in K562 cells; test: HiBiT protein abundance assay, HTT; type: cell-based, human; conditions: HiBiT-modified K562 cells, 24 hours, luminescence
How it was run: as §1

| IC50 (MYB mRNA) | IC50 [1] | IC50 [2] | IC50 [3] | Structure (SMILES) | AC50 (MYB mRNA) |
| --- | --- | --- | --- | --- | --- |
| 1000 to 10000 nM | 1000 to 10000 nM | 1000 to 10000 nM | 1000 to 10000 nM | Cc1cn2cc(-c3cn4c(=O)cc(N5CCNC6(CC6)C5)nc4s3)cc(F)c2n1 [Compound 208, 2-(8-fluoro-2-methylimidazo[1,2-a]pyridin-6-yl)-7-(4,7-diazaspiro[2.5]octan-7-yl)-5H-thiazolo[3,2-a]pyrimidin-5-one] | 1000 to 10000 nM |
| 1000 to 10000 nM | 1000 to 10000 nM | 1000 to 10000 nM | 1000 to 10000 nM | Cc1cn2cc(-c3cc4ncn([C@H]5CCNC[C@@H]5F)c(=O)c4s3)cc(F)c2n1 (relative stereo) [Compound 272, trans-6-{8-fluoro-2-methylimidazo[1,2-a]pyridin-6-yl}-3-[3-fluoropiperidin-4-yl]thieno[3,2-d]pyrimidin-4-one] | 1000 to 10000 nM |
| 1000 to 10000 nM | > 10000 nM | > 10000 nM | > 10000 nM | Cc1cn2cc(-c3cc(=O)n4cc(N5CCNC6(CC6)C5)sc4n3)cc(F)c2n1 [Compound 207, 7-(8-fluoro-2-methylimidazo[1,2-a]pyridin-6-yl)-2-(4,7-diazaspiro[2.5]octan-7-yl)-5H-thiazolo[3,2-a]pyrimidin-5-one] | > 10000 nM |
| 100 to 1000 nM | 100 to 1000 nM | 100 to 1000 nM | 100 to 1000 nM | Cc1cn2cc(-c3cc4ncn([C@H]5CCN[C@@H](C)C5)c(=O)c4s3)cc(F)c2n1 (relative stereo) [Compound 278, 6-{8-fluoro-2-methylimidazo[1,2-a]pyridin-6-yl}-3-[(cis)-2-methylpiperidin-4-yl]thieno[3,2-d]pyrimidin-4-one hydrochloride] | 100 to 1000 nM |
| 100 to 1000 nM | 1000 to 10000 nM | 1000 to 10000 nM | 1000 to 10000 nM | Cc1cn2cc(-c3cc4ncn([C@H]5CCNC[C@H]5F)c(=O)c4s3)cc(F)c2n1 (relative stereo) [Compound 273, cis-6-{8-fluoro-2-methylimidazo[1,2-a]pyridin-6-yl}-3-[3-fluoropiperidin-4-yl]thieno[3,2-d]pyrimidin-4-one] | 100 to 1000 nM |
| 1000 to 10000 nM | 1000 to 10000 nM | 1000 to 10000 nM | 1000 to 10000 nM | COc1cc(-c2cc3ncn(C4CCNCC4)c(=O)c3s2)ccn1 [Compound 263] | 1000 to 10000 nM |
| 100 to 1000 nM | 100 to 1000 nM | 100 to 1000 nM | 100 to 1000 nM | Cc1cn2cc(-c3nc4sc(C5CCNCC5)cc4c(=O)[nH]3)cc(F)c2n1 [Compound 250, 2-(8-fluoro-2-methylimidazo[1,2-a]pyridin-6-yl)-6-(piperidin-4-yl)thieno[2,3-d]pyrimidin-4(3H)-one] | 100 to 1000 nM |
| 100 to 1000 nM | 100 to 1000 nM | 100 to 1000 nM | < 100 nM | Cc1cn2cc(-c3nc4ncn(C5CCNCC5)c(=O)c4s3)cc(F)c2n1 [Compound 232, 2-(8-fluoro-2-methylimidazo[1,2-a]pyridin-6-yl)-6-(piperidin-4-yl)thiazolo[4,5-d]pyrimidin-7(6H)-one] | 100 to 1000 nM |
| 100 to 1000 nM | 100 to 1000 nM | 100 to 1000 nM | 100 to 1000 nM | Cc1cn2cc(-c3cc4ncn(N5CCNCC5)c(=O)c4s3)cc(F)c2n1 [Compound 269, 6-{8-fluoro-2-methylimidazo[1,2-a]pyridin-6-yl}-3-(piperazin-1-yl)thieno[3,2-d]pyrimidin-4-one] | 100 to 1000 nM |
| > 10000 nM | > 10000 nM | > 10000 nM | > 10000 nM | Cc1cn2cc(-c3nc4sc(C5CCN(C)CC5)cc4c(=O)[nH]3)cc(F)c2n1 [Compound 256, 2-(8-fluoro-2-methylimidazo[1,2-a]pyridin-6-yl)-6-(1-methylpiperidin-4-yl)thieno[2,3-d]pyrimidin-4(3H)-one] | > 10000 nM |
| 100 to 1000 nM | 100 to 1000 nM | 1000 to 10000 nM | 100 to 1000 nM | Cn1cc2cc(-c3cc4ncn(C5CCNCC5)c(=O)c4s3)cc(C#N)c2n1 [Compound 259] | 100 to 1000 nM |
| 1000 to 10000 nM | 1000 to 10000 nM | 1000 to 10000 nM | 1000 to 10000 nM | Cc1cn2nc(-c3cn4c(=O)cc(N5CCNC6(CC6)C5)nc4s3)cc(C)c2n1 [Compound 212, 2-(2,8-dimethylimidazo[1,2-b]pyridazin-6-yl)-7-(4,7-diazaspiro[2.5]octan-7-yl)-5H-thiazolo[3,2-a]pyrimidin-5-one] | 1000 to 10000 nM |
| > 10000 nM | 100 to 1000 nM | 100 to 1000 nM | 100 to 1000 nM | Cc1cn2cc(-c3nc4cnn(C5CCNCC5)c(=O)c4s3)nc(C)c2n1 [Compound 812, 2-(2,8-dimethylimidazo[1,2-a]pyrazin-6-yl)-6-(piperidin-4-yl)thiazolo[4,5-d]pyridazin-7(6H)-one] | > 10000 nM |
| > 10000 nM | > 10000 nM | > 10000 nM | > 10000 nM | Cc1cn2cc(-c3cc4ncn(C5CNCCC5=O)c(=O)c4s3)cc(F)c2n1 (stereo not shown) [Compound 279, 3-(6-{8-fluoro-2-methylimidazo[1,2-a]pyridin-6-yl}-4-oxothieno [3,2-d]pyrimidin-3-yl)piperidin-4-one] | > 10000 nM |
| > 10000 nM | > 10000 nM | > 10000 nM | > 10000 nM | Cc1cn2cc(-n3ccc4cc(C5CCNCC5)sc4c3=O)cc(F)c2n1 [Compound 801, 6-[8-fluoro-2-methylimidazo[1,2-a]pyridin-6-yl]-2-(piperidin-4-yl)thieno[2,3-c]pyridin-7-one] | > 10000 nM |
| 100 to 1000 nM | 100 to 1000 nM | 100 to 1000 nM | 100 to 1000 nM | Cc1cn2cc(-c3cc4ccn(C5CCNCC5)c(=O)c4s3)cc(F)c2n1 [Compound 804, 2-(8-fluoro-2-methylimidazo[1,2-a]pyridin-6-yl)-6-(piperidin-4-yl)thieno[2,3-c]pyridin-7(6H)-one] | 100 to 1000 nM |
| 1000 to 10000 nM | 1000 to 10000 nM | 1000 to 10000 nM | 1000 to 10000 nM | Cc1cc(-c2nn3c(=O)cc(N4CCNCC4)nc3s2)cc2cn(C)nc12 [Compound 206, 2-(2,7-dimethyl-2H-indazol-5-yl)-7-(piperazin-1-yl)-5H-[1,3,4]thiadiazolo[3,2-a]pyrimidin-5-one] | 1000 to 10000 nM |
| 100 to 1000 nM | 100 to 1000 nM | 100 to 1000 nM | 100 to 1000 nM | Cc1cn2cc(-c3cc4ncn(C5CCCNCC5)c(=O)c4s3)cc(F)c2n1 (stereo not shown) [Compound 275, 3-(azepan-4-yl)-6-{8-fluoro-2-methylimidazo[1,2-a]pyridin-6-yl}thieno[3,2-d]pyrimidin-4-one] | 100 to 1000 nM |
| 100 to 1000 nM | < 100 nM | < 100 nM | < 100 nM | Cc1cc(-c2nc3ncn(C4CCNCC4)c(=O)c3s2)cc2cn(C)nc12 [Compound 233, 2-(2,7-dimethyl-2H-indazol-5-yl)-6-(piperidin-4-yl)thiazolo[4,5-d]pyrimidin-7(6H)-one] | < 100 nM |
| 1000 to 10000 nM | 1000 to 10000 nM | 1000 to 10000 nM | 1000 to 10000 nM | Cn1cc2cc(-c3cc4ncn(C5CCNCC5)c(=O)c4s3)cc(F)c2n1 [Compound 257] | 1000 to 10000 nM |
| > 10000 nM | > 10000 nM | > 10000 nM | > 10000 nM | Cc1cn2cc(-c3cc4ncn(C5CCNCC5(F)F)c(=O)c4s3)cc(F)c2n1 (stereo not shown) [Compound 274, 3-(3,3-difluoropiperidin-4-yl)-6-{8-fluoro-2-methylimidazo[1,2-a]pyridin-6-yl}thieno[3,2-d]pyrimidin-4-one] | > 10000 nM |
| 100 to 1000 nM | 100 to 1000 nM | 100 to 1000 nM | 100 to 1000 nM | Cc1cn2cc(-c3cc4ncn(C5CCN(C)CC5)c(=O)c4s3)cc(F)c2n1 [Compound 265, 6-{8-fluoro-2-methylimidazo[1,2-a]pyridin-6-yl}-3-(1-methylpiperidin-4-yl)thieno[3,2-d]pyrimidin-4-one] | 100 to 1000 nM |
| 100 to 1000 nM | 100 to 1000 nM | 100 to 1000 nM | 100 to 1000 nM | Cc1cn2nc(-c3nc4sc(N5CCNCC5)nc4c(=O)[nH]3)cc2c(C)n1 [Compound 267] | 100 to 1000 nM |
| > 10000 nM | > 10000 nM | > 10000 nM | > 10000 nM | Cc1cn2nc(-c3nc4sc(N5CCN(C)CC5)nc4c(=O)[nH]3)cc2c(C)n1 [Compound 268] | 1000 to 10000 nM |
| 100 to 1000 nM | 100 to 1000 nM | 100 to 1000 nM | 100 to 1000 nM | Cc1cc(-c2cc3ccn(C4CCNCC4)c(=O)c3s2)cc2cn(C)nc12 [Compound 805, 2-(2,7-dimethyl-2H-indazol-5-yl)-6-(piperidin-4-yl)thieno[2,3-c]pyridin-7(6H)-one] | 100 to 1000 nM |

| Structure (SMILES) | IC50 (MYB mRNA) | IC50 [1] | IC50 [2] | IC50 [3] | AC50 (MYB mRNA) |
| --- | --- | --- | --- | --- | --- |
| Cc1cn2cc(-n3cnc4nc(N(C)C5CC(C)(C)NC(C)(C)C5)sc4c3=O)cc(F)c2n1 [Compound 227, 6-(8-fluoro-2-methylimidazo[1,2-a]pyridin-6-yl)-2-(methyl(2,2,6,6-tetramethylpiperidin-4-yl)amino)thiazolo[4,5-d]pyrimidin-7(6H)-one, formate] | > 10000 nM | > 10000 nM | > 10000 nM | > 10000 nM | > 10000 nM |
